Literature values, collected in US20120129696A1, “METHOD FOR INCREASING THE LEVEL OF FREE AMINO ACIDS IN STORAGE TISSUES OF PERENNIAL PLANTS” (priority 2009, published 2012).

Test system: wheat plants

For COC(=O)N(OC)c1ccccc1COc1ccn(-c2ccc(Cl)cc2)n1 [pyraclostrobin], which “relative content of protein and C/N-ratios, control compared to treated plants” value is on record?
Its value is “neither the relative content of protein nor C/N-ratios were different”.

What about the “persistence of enhancement of nitrate reduction” value (after a single application at rates normally used for fungal control at the field site) of the same compound?
Its value is 3 nights.

And the “nitrite and ammonia in the leaves following application” value (rates normally used for fungal control at the field site)?
Its value is “accumulated”.
